Assays:
Type in all cases: in vivo
[1] = test system: Rhipicephalus microplus larvae (strain Parkhurst, resistant against synthetic pyrethroids); test: Rhipicephalus (Boophilus) microplus in-vitro contact test, larval cattle tick; settings: 5 μg/cm^2 (=500 g/ha), after 48 hours, read-out: efficacy (larvae dead or moribund)
Experimental: Rhipicephalus (Boophilus) Microplus—In-Vitro Contact Tests Larval Cattle Tick (Strain Parkhurst, Resistant Against Synthetic Pyrethroids)
9 mg compound is solved in 1 mL acetone and diluted with acetone to the desired concentration. 250 μL of the test solution is filled in 25 mL glass test tubes and homogeneously distributed on the inner walls by rotation and tilting on a shaking device (2 h at 30 rpm). With a compound concentration of 900 ppm, an inner surface of 44.7 cm^2 and a homogeneous distribution, a dose of 5 μg/cm^2 is achieved.
After the solvent has evaporated, each test tube is filled with 20-50 cattle tick larvae (Rhipicephalus microplus), closed with a perforated lid and incubated in a horizontal position at 85% relative humidity and 27° C. in an incubator. After 48 hours efficacy is determined. The larvae are patted on the ground of the tubes and negative geotactic behavior is recorded.
An efficacy of 100% means all larvae are dead or moribund; 0% means no larvae are dead or moribund.

[2] = test system: adult engorged female ticks (Rhipicephalus microplus); test: Rhipicephalus (Boophilus) microplus injection test; settings: 168 h, 4 μg/animal, egg deposition after 7 days, read-out: efficacy (infertile eggs)
Experimental: Rhipicephalus (Boophilus) Microplus—Injection Test
(§1) Solvent: dimethyl sulfoxide
To produce a suitable preparation of active compound, 10 mg of active compound are dissolved in 0.5 mL solvent, and the concentrate is diluted with solvent to the desired concentration.
Five adult engorged female ticks (Rhipicephalus microplus) are injected with 1 μL compound solution into the abdomen. The ticks are transferred into replica plates and incubated in a climate chamber.
After 7 days egg deposition of fertile eggs is monitored. Eggs where fertility is not visible are stored in a climate chamber till hatching after about 42 days. An efficacy of 100% means all eggs are infertile; 0% means all eggs are fertile.

[3] = test system: adult unfed cat fleas (Ctenocephalides felis); test: Ctenocephalides felis oral test; settings: 48 h
Experimental: Ctenocephalides felis—Oral Test
as §1
To produce a suitable preparation of active compound, 10 mg of active compound are dissolved in 0.5 mL solvent, and the concentrate is diluted with cattle blood to the desired concentration.
Approximately 20 adult unfed cat fleas (Ctenocephalides felis) are placed in flea chambers. The blood chamber, sealed with parafilm on the bottom, are filled with cattle blood supplied with compound solution and placed on the gauze covered top of the flea chamber, so that the fleas are able to suck the blood. The blood chamber is heated to 37° C. whereas the flea chamber is kept at room temperature.
After 2 days mortality in % is determined. 100% means all the fleas have been killed; 0% means none of the fleas have been killed.

[4] = test system: larvae of the banded cucumber beetle (Diabrotica balteata); test: Diabrotica balteata spray test; settings: 168 h, 100 g/ha (=32 μg/well), wheat seeds, after 7 days, read-out: efficacy (seedling growth)
Experimental: Diabrotica Balteata—Spray Test
• Solvent: 78.0 parts by weight of acetone • 1.5 parts by weight of dimethylformamide • Emulsifier: alkylarylpolyglycol ether
Further test concentrations are prepared by dilution with emulsifier containing water.
Soaked wheat seeds (Triticum aestivum) are placed in a multiple well plate filled with agar and some water and are incubated for 1 day to germinate (5 seeds per well). The germinated wheat seeds are sprayed with a test solution containing the desired concentration of the active ingredient. Afterwards each unit is infected with 10-20 larvae of the banded cucumber beetle (Diabrotica balteata).
After 7 days efficacy in % is determined.

[5] = test system: fall armyworm larvae (Spodoptera frugiperda); test: Spodoptera frugiperda spray test (maize leaf sections); settings: 168 h
Experimental: Spodoptera frugiperda—Spray Test • Solvent: 78.0 parts by weight acetone • 1.5 parts by weight dimethylformamide • Emulsifier: alkylarylpolyglycol ether
(§2) To produce a suitable preparation of active compound, 1 part by weight of active compound is mixed with the stated amount of solvents and is diluted with water, containing an emulsifier concentration of 1000 ppm, to the desired concentration. Further test concentrations are prepared by dilution with emulsifier containing water.
Maize (Zea mays) leaf sections are sprayed with a preparation of the active ingredient of the desired concentration. Once dry, the leaf sections are infested with fall armyworm larvae (Spodoptera frugiperda).
After 7 days mortality in % is determined. 100% means all caterpillars have been killed and 0% means none of the caterpillars have been killed.

[6] = test system: green peach aphid (Myzus persicae); test: Myzus persicae oral test; settings: 120 h
Experimental: Myzus persicae—oral test • Solvent: 100 parts by weight acetone
To produce a suitable preparation of active compound, 1 part by weight of active compound is mixed with the stated amount of solvent, and the concentrate is diluted with water to the desired concentration. 50 μL compound solution is filled in microtiter plates and 150 μL IPL41 insect medium (33%+15% sugar) is added to obtain a total volume of 200 μL per well. Afterwards the plates are sealed with parafilm through which a mixed population of the green peach aphid (Myzus persicae) can suck on the compound preparation.
(§3) After 5 days mortality in % is determined. 100% means all aphids have been killed and 0% means none of the aphids have been killed.

[7] = test system: green peach aphid (Myzus persicae); test: Myzus persicae spray test; settings: foliar, 120 h, Chinese cabbage leaf disks, after 5 days
Experimental: Myzus persicae—Spray Test • Solvent: 78.0 parts by weight acetone • 1.5 parts by weight dimethylformamide • Emulsifier: alkylarylpolyglycol ether
as §2
Chinese cabbage (Brassica pekinensis) leaf disks infected with all instars of the green peach aphid (Myzus persicae), are sprayed with a preparation of the active ingredient of the desired concentration.
as §3

[8] = test system: adult flies Musca domestica strain WHO-N; test: Musca domestica test (MUSCDO surface treatment & contact assay); settings: surface concentration 20 mg/m^2, 30 min exposure, 24 hours after contact, read-out: efficacy (mortality)
Experimental: Musca domestica Test (MUSCDO Surface Treatment & Contact Assay) • Solvent: Aceton+2000 ppm rapeseed oil methyl ester (RME)
In order to produce a sufficient, active ingredient containing solution it is necessary to solve the test compound in the solvent-mix (acetone at 2 mg/ml/RME 2000 ppm). This solution is pipetted onto a glazed tile and after evaporation of the acetone, adult flies of the species Musca domestica strain WHO-N are placed onto the dried surface. The exposure time is 30 minutes.
Mortality in percent (%) is determined 24 hours after contact of the insects to the treated surface. 100% mortality means that all tested insects are dead, whereas 0% means that no insect died.

Structure (SMILES) | pest or weed control at 5 µg/cm2 [1] | pest or weed control at 0.004 mg [2] | mortality at 100 ppm [3] | pest or weed control at 32 µg/disc, 100 g/ha [4] | mortality at 100 g/ha [5] | mortality at 4 ppm [6] | mortality at 100 g/ha [7] | mortality at 20 mg/m2 [8]
Cc1nc([C@H](C)NC(=O)c2cc(C#N)cc(C(F)(F)F)c2)n(-c2ncc(C#N)s2)n1 [I-16] | 100% | 100% | 100% | 100% | 100% |  |  | 
CC(NC(=O)c1cc(Br)cc(Br)c1)c1ncnn1-c1ncc(C#N)s1 (centres unmarked) [I-27] |  | 100% | 100% | 100% |  |  |  | 
CC(NC(=O)c1cc(Br)cc(I)c1)c1ncnn1-c1ncc(C#N)s1 (centres unmarked) [I-29] | 90% | 100% | 100% |  |  |  |  | 
CC(NC(=O)c1cc(Cl)cc(S(F)(F)(F)(F)F)c1)c1ncnn1-c1ncc(C#N)s1 (centres unmarked) [I-32] | 90% | 100% | 100% | 100% | 100% |  |  | 
CC(NC(=O)c1cc(OC(F)F)cc(C(F)F)c1)c1ncnn1-c1ncc(C#N)s1 (centres unmarked) [I-34] | 90% | 100% | 100% | 100% | 100% | 100% |  | 
CC(NC(=O)c1cc(OC(F)F)cc(C2CC2)c1)c1ncnn1-c1ncc(C#N)s1 (centres unmarked) [I-35] | 100% | 100% | 100% | 100% | 100% | 100% | 90% | 
C[C@H](NC(=O)c1cc(Cl)cc(S(C)(=O)=O)c1)c1nc(C2CC2)nn1-c1ncc(C#N)s1 [I-40, 3-chloro-N-{(1S)-1-[1-(5-cyano-1,3-thiazol-2-yl)-3-cyclopropyl-1H-1,2,4-triazol-5-yl]ethyl}-5-(methylsulfonyl)benzamide] |  |  |  | 80% | 100% | 90% |  | 
C[C@H](NC(=O)c1cc(Cl)cc(S(=O)(=O)C2CC2)c1)c1nc(C2CC2)nn1-c1ncc(C#N)s1 [I-42] |  |  |  | 100% | 100% | 100% |  | 
C[C@H](NC(=O)c1cc(Cl)cc(Br)c1)c1ncnn1-c1ncc(C#N)s1 [I-59] |  |  |  | 100% | 100% |  |  | 80 to 100%
Cc1nc([C@H](C)NC(=O)c2cc(Cl)cc(C(F)(F)F)c2)n(-c2ncc(C(=O)NC3CC3)s2)n1 [I-66] | 100% | 100% |  | 100% | 100% | 100% | 90% | 

From US20230065953A1, “NOVEL HETEROARYL-TRIAZOLE COMPOUNDS AS PESTICIDES” (Bayer Aktiengesellschaft, priority 2019, published 2023)
